What was measured:
Format in all cases: in vivo
[1] = test system: duck salad (Heteranthera limosa); assay: Test D flooded paddy test, visual plant response rating; conditions: 250 g ai/ha, scale 0 to 100 (0 no effect, 100 complete control), 13 to 15 d
Experimental: (§1) Plant species in the flooded paddy test selected from rice (Oryza sativa), sedge umbrella (small-flower umbrella sedge, Cyperus difformis) duck salad (Heteranthera limosa), and barnyardgrass (Echinochloa crus-galli) were grown to the 2-leaf stage for testing. At time of treatment, test pots were flooded to 3 cm above the soil surface, treated by application of test compounds directly to the paddy water, and then maintained at that water depth for the duration of the test. Treated plants and controls were maintained in a greenhouse for 13 to 15 d, after which time all species were compared to controls and visually evaluated. Plant response ratings, summarized in Table D, are based on a scale of 0 to 100 where 0 is no effect and 100 is complete control. A dash (-) response means no test result.

[2] = test system: barnyardgrass (Echinochloa crus-galli); assay: as above; conditions: 250 g ai/ha, scale 0 to 100 (0 no effect, 100 complete control), 13 to 15 d
Experimental: as §1

[3] = test system: sedge umbrella (small-flower umbrella sedge, Cyperus difformis); assay: as above; conditions: 250 g ai/ha, scale 0 to 100 (0 no effect, 100 complete control), 13 to 15 d
Experimental: as §1

[4] = test system: rice (Oryza sativa); assay: as above; conditions: 250 g ai/ha, scale 0 to 100 (0 no effect, 100 complete control), 13 to 15 d
Experimental: as §1

[5] = test system: Italian ryegrass (Lolium mutiflorum); assay: Test C postemergence, visual plant response rating
Description: (§2) Seeds of plant species selected from barnyardgrass (Echinochloa crus-galli), kochia (Bassia scoparia), ragweed (common ragweed, Ambrosia artemisiifolia), Italian ryegrass (Lolium mutiflorum), foxtail, giant (giant foxtail, Setaria faberi), foxtail, green (green foxtail, Setaria viridis), and pigweed (Amaranthus retroflexus) were planted into a blend of loam soil and sand and treated preemergence with a directed soil spray using test chemicals formulated in anon-phytotoxic solvent mixture which included a surfactant.
(§3) At the same time, plants selected from these weed species and also wheat (Triticum aestivum), corn (Zea mays), blackgrass (Alopecurus myosuroides), and galium (catchweed bedstraw, Galium aparine) were planted in pots containing the same blend of loam soil and sand and treated with post emergence applications of test chemicals formulated in the same manner. Plants ranged in height from 2 to 10 cm and were in the one- to two-leaf stage for the postemergence treatment. Treated plants and untreated controls were maintained in a greenhouse for approximately 10 d, after which time all treated plants were compared to untreated controls and visually evaluated for injury. Plant response ratings, summarized in Table C, are based on a 0 to 100 scale where 0 is no effect and 100 is complete control. A dash (-)response means no test result.

[6] = test system: galium (catchweed bedstraw, Galium aparine); assay: Test C postemergence, visual plant response rating
Description: as §2, §3

[7] = test system: kochia (Bassia scoparia); assay: Test C postemergence, visual plant response rating
Description: as §2, §3

[8] = test system: barnyardgrass (Echinochloa crus-galli); assay: Test C postemergence, visual plant response rating
Description: as §2, §3

[9] = test system: blackgrass (Alopecurus myosuroides); assay: Test C postemergence, visual plant response rating
Description: as §2, §3

[10] = test system: pigweed (Amaranthus retroflexus); assay: Test C postemergence, visual plant response rating
Description: as §2, §3

[11] = test system: wheat (Triticum aestivum); assay: Test C postemergence, visual plant response rating
Description: as §2, §3

[12] = test system: ragweed (common ragweed, Ambrosia artemisiifolia); assay: Test C postemergence, visual plant response rating
Description: as §2, §3

[13] = test system: corn (Zea mays); assay: Test C postemergence, visual plant response rating
Description: as §2, §3

[14] = test system: foxtail, giant (giant foxtail, Setaria faberi); assay: Test C postemergence, visual plant response rating
Description: as §2, §3

[15] = test system: Italian ryegrass (Lolium mutiflorum); assay: Test C preemergence, visual plant response rating
Method in brief: (§4)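 Visual injury on a 0 (no effect) to 100 (complete control) scale versus untreated controls, scored approximately 10 d after treatment under greenhouse conditions. Treatments used surfactant-containing non-phytotoxic solvent formulations, sprayed onto loam–sand soil preemergence or onto one- to two-leaf plants 2–10 cm tall postemergence.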

[16] = test system: kochia (Bassia scoparia); assay: Test C preemergence, visual plant response rating
Method in brief: as §4

[17] = test system: barnyardgrass (Echinochloa crus-galli); assay: Test C preemergence, visual plant response rating
Method in brief: as §4

[18] = test system: pigweed (Amaranthus retroflexus); assay: Test C preemergence, visual plant response rating
Method in brief: as §4

[19] = test system: foxtail, giant (giant foxtail, Setaria faberi); assay: Test C preemergence, visual plant response rating
Method in brief: as §4

[20] = Test C, postemergence, 125 g ai/ha
[21] = Test C, 31 g ai/ha, 0 is no effect, 100 is complete control

Row | SMILES | Plant response rating, Ducksalad (Flood) [1] | Plant response rating, Barnyardgrass (Flood) [2] | Plant response rating, Sedge, Umbrella (Flood) [3] | Plant response rating, Rice (Flood) [4] | Ryegrass, Italian plant response rating (0 to 100 scale) ([5]; Postemergence, 31 g ai/ha) | Ryegrass, Italian plant response rating (0 to 100 scale) [5, 20] | Galium plant response rating (0 to 100 scale) ([6]; Postemergence, 31 g ai/ha) | Galium plant response rating (0 to 100 scale) [6, 20] | Kochia plant response rating (0 to 100 scale) ([7]; Postemergence, 31 g ai/ha) | Kochia plant response rating (0 to 100 scale) [7, 20] | Barnyardgrass plant response rating (0 to 100 scale) ([8]; Postemergence, 31 g ai/ha) | Barnyardgrass plant response rating (0 to 100 scale) [8, 20] | Blackgrass plant response rating (0 to 100 scale) ([9]; Postemergence, 31 g ai/ha) | Blackgrass plant response rating (0 to 100 scale) [9, 20] | Pigweed plant response rating (0 to 100 scale) ([10]; Postemergence, 31 g ai/ha) | Pigweed plant response rating (0 to 100 scale) [10, 20] | Wheat plant response rating (0 to 100 scale) ([11]; Postemergence, 31 g ai/ha) | Wheat plant response rating (0 to 100 scale) [11, 20] | Ragweed plant response rating (0 to 100 scale) ([12]; Postemergence, 31 g ai/ha) | Ragweed plant response rating (0 to 100 scale) [12, 20] | further results
1 | C#CCO/N=C(\c1cc(Cl)cc(Cl)c1Cl)c1c(O)c(C)nn(C)c1=O [Compound 187] | 75 | 35 | 60 | 15 | 70 | 100 | 80 | 100 | 40 | 70 | 30 | 70 | 0 | 0 | 20 | 70 | 0 | 50 | 90 | 100 | Corn plant response rating (0 to 100 scale) ([13]; Postemergence, 31 g ai/ha): 0; Corn plant response rating (0 to 100 scale) [13, 20]: 20; Foxtail, Giant plant response rating (0 to 100 scale) ([14]; Postemergence, 31 g ai/ha): 50; Foxtail, Giant plant response rating (0 to 100 scale) [14, 20]: 80; Ryegrass, Italian plant response rating (0 to 100 scale) ([15]; 125 g ai/ha): 100; Ryegrass, Italian plant response rating (0 to 100 scale) [15, 21]: 40; Kochia plant response rating (0 to 100 scale) ([16]; 125 g ai/ha): 90; Kochia plant response rating (0 to 100 scale) [16, 21]: 0; Barnyardgrass plant response rating (0 to 100 scale) ([17]; 125 g ai/ha): 100; Barnyardgrass plant response rating (0 to 100 scale) [17, 21]: 70; Pigweed plant response rating (0 to 100 scale) ([18]; 125 g ai/ha): 90; Pigweed plant response rating (0 to 100 scale) [18, 21]: 60; Foxtail, Giant plant response rating (0 to 100 scale) ([19]; 125 g ai/ha): 100; Foxtail, Giant plant response rating (0 to 100 scale) [19, 21]: 80
2 | CON=C(c1cc(Cl)cc(Cl)c1)c1c(O)c(C)nn(C)c1=O [Compound 188] | 70 | 15 | 85 | 0 | 80 | 100 | 100 | 100 | 80 | 100 | 30 | 60 | 40 | 30 | 80 | 90 | 10 | 50 | 60 | 100 | Corn plant response rating (0 to 100 scale) ([13]; Postemergence, 31 g ai/ha): 0; Corn plant response rating (0 to 100 scale) [13, 20]: 30; Foxtail, Giant plant response rating (0 to 100 scale) ([14]; Postemergence, 31 g ai/ha): 40; Foxtail, Giant plant response rating (0 to 100 scale) [14, 20]: 90; Ryegrass, Italian plant response rating (0 to 100 scale) ([15]; 125 g ai/ha): 100; Ryegrass, Italian plant response rating (0 to 100 scale) [15, 21]: 80; Kochia plant response rating (0 to 100 scale) ([16]; 125 g ai/ha): 100; Kochia plant response rating (0 to 100 scale) [16, 21]: 10; Barnyardgrass plant response rating (0 to 100 scale) ([17]; 125 g ai/ha): 100; Barnyardgrass plant response rating (0 to 100 scale) [17, 21]: 30; Pigweed plant response rating (0 to 100 scale) ([18]; 125 g ai/ha): 90; Pigweed plant response rating (0 to 100 scale) [18, 21]: 70; Foxtail, Giant plant response rating (0 to 100 scale) ([19]; 125 g ai/ha): 100; Foxtail, Giant plant response rating (0 to 100 scale) [19, 21]: 90
3 | CON=C(c1cc(Cl)cc(Cl)c1)c1c(O)c(C)nn(C)c1=O [Compound 189] | 25 | 0 | 35 | 15 | 90 | 100 | 100 | 100 | 70 | 90 | 30 | 50 | 10 | 30 | 50 | 80 | 10 | 50 | 70 | 90 | Corn plant response rating (0 to 100 scale) ([13]; Postemergence, 31 g ai/ha): 0; Corn plant response rating (0 to 100 scale) [13, 20]: 10; Foxtail, Giant plant response rating (0 to 100 scale) ([14]; Postemergence, 31 g ai/ha): 50; Foxtail, Giant plant response rating (0 to 100 scale) [14, 20]: 80; Ryegrass, Italian plant response rating (0 to 100 scale) ([15]; 125 g ai/ha): 100; Ryegrass, Italian plant response rating (0 to 100 scale) [15, 21]: 90; Kochia plant response rating (0 to 100 scale) ([16]; 125 g ai/ha): 40; Kochia plant response rating (0 to 100 scale) [16, 21]: 0; Barnyardgrass plant response rating (0 to 100 scale) ([17]; 125 g ai/ha): 90; Barnyardgrass plant response rating (0 to 100 scale) [17, 21]: 20; Pigweed plant response rating (0 to 100 scale) ([18]; 125 g ai/ha): 100; Pigweed plant response rating (0 to 100 scale) [18, 21]: 70; Foxtail, Giant plant response rating (0 to 100 scale) ([19]; 125 g ai/ha): 90; Foxtail, Giant plant response rating (0 to 100 scale) [19, 21]: 20
4 | CON=C(c1c(OC(C)=O)c(Cl)nn(C)c1=O)c1ccc(F)c2ccccc12 [Compound 190] | 0 | 0 | 0 | 0 | 10 | 20 | 90 | 100 | 10 | 20 | 30 | 20 | 0 | 20 | 30 | 30 | 0 | 0 | 10 | 60 | Corn plant response rating (0 to 100 scale) ([13]; Postemergence, 31 g ai/ha): 0; Corn plant response rating (0 to 100 scale) [13, 20]: 0; Foxtail, Giant plant response rating (0 to 100 scale) ([14]; Postemergence, 31 g ai/ha): 10; Foxtail, Giant plant response rating (0 to 100 scale) [14, 20]: 30; Ryegrass, Italian plant response rating (0 to 100 scale) ([15]; 125 g ai/ha): 60; Ryegrass, Italian plant response rating (0 to 100 scale) [15, 21]: 0; Kochia plant response rating (0 to 100 scale) ([16]; 125 g ai/ha): 0; Kochia plant response rating (0 to 100 scale) [16, 21]: 0; Barnyardgrass plant response rating (0 to 100 scale) ([17]; 125 g ai/ha): 50; Barnyardgrass plant response rating (0 to 100 scale) [17, 21]: 30; Pigweed plant response rating (0 to 100 scale) ([18]; 125 g ai/ha): 90; Pigweed plant response rating (0 to 100 scale) [18, 21]: 20; Foxtail, Giant plant response rating (0 to 100 scale) ([19]; 125 g ai/ha): 70; Foxtail, Giant plant response rating (0 to 100 scale) [19, 21]: 60
